Measurements: ChEMBL document CHEMBL4196233, “Ribosome-Templated Azide-Alkyne Cycloadditions Using Resistant Bacteria as Reaction Vessels: in Cellulo Click Chemistry” (2018)
Values after ≈ are worked out from the molar mass of the structure shown.

System: Staphylococcus aureus
Assay: Antimicrobial activity against Staphylococcus aureus UCN18 measured after 18 hrs
Type: functional
Settings: UCN18, 18 h

| SMILES | MIC [µg/mL] |
| --- | --- |
| CC[C@H]1OC(=O)[C@@](C)(F)C(=O)[C@H](C)[C@@H](O[C@@H]2O[C@H](C)C[C@H](N(C)C)[C@H]2O)[C@](C)(OC)C[C@@H](C)C(=O)[C@H](C)[C@H]2N(CCCCn3cc(-c4cccc(C(F)(F)F)c4)nn3)C(=O)O[C@]12C | 32 (≈ 35.6 µM) |
| CC[C@H]1OC(=O)[C@@](C)(F)C(=O)[C@H](C)[C@@H](O[C@@H]2O[C@H](C)C[C@H](N(C)C)[C@H]2O)[C@](C)(OC)C[C@@H](C)C(=O)[C@H](C)[C@H]2N(CCCCn3cc(-c4cccnc4)nn3)C(=O)O[C@]12C | 16 (≈ 19.3 µM) |
| CC[C@H]1OC(=O)[C@@](C)(F)C(=O)[C@H](C)[C@@H](O[C@@H]2O[C@H](C)C[C@H](N(C)C)[C@H]2O)[C@](C)(OC)C[C@@H](C)C(=O)[C@H](C)[C@H]2N(CCCCn3cc(COc4ccccc4)nn3)C(=O)O[C@]12C | 4 (≈ 4.65 µM) |
| CC[C@H]1OC(=O)[C@@](C)(F)C(=O)[C@H](C)[C@@H](O[C@@H]2O[C@H](C)C[C@H](N(C)C)[C@H]2O)[C@](C)(OC)C[C@@H](C)C(=O)[C@H](C)[C@H]2N(CCCCn3cc(CN4CCNCC4)nn3)C(=O)O[C@]12C | 128 (≈ 150 µM) |
| CC[C@H]1OC(=O)[C@@](C)(F)C(=O)[C@H](C)[C@@H](O[C@@H]2O[C@H](C)C[C@H](N(C)C)[C@H]2O)[C@](C)(OC)C[C@@H](C)C(=O)[C@H](C)[C@H]2N(CCCCn3cc(C(O)(CC)CC)nn3)C(=O)O[C@]12C | 128 (≈ 152 µM) |
| CC[C@H]1OC(=O)[C@@](C)(F)C(=O)[C@H](C)[C@@H](O[C@@H]2O[C@H](C)C[C@H](N(C)C)[C@H]2O)[C@](C)(OC)C[C@@H](C)C(=O)[C@H](C)[C@H]2N(CCCCn3cc(-c4cccc(O)c4)nn3)C(=O)O[C@]12C | 8 (≈ 9.46 µM) |
| CC[C@H]1OC(=O)[C@@](C)(F)C(=O)[C@H](C)[C@@H](O[C@@H]2O[C@H](C)C[C@H](N(C)C)[C@H]2O)[C@](C)(OC)C[C@@H](C)C(=O)[C@H](C)[C@H]2N(CCCCn3cc(-c4ccc(OC)cc4)nn3)C(=O)O[C@]12C | 32 (≈ 37.2 µM) |
| CC[C@H]1OC(=O)[C@@](C)(F)C(=O)[C@H](C)[C@@H](O[C@@H]2O[C@H](C)C[C@H](N(C)C)[C@H]2O)[C@](C)(OC)C[C@@H](C)C(=O)[C@H](C)[C@H]2N(CCCCn3cc(-c4cccc(N)c4)nn3)C(=O)O[C@]12C [SOLITHROMYCIN] | 2 (≈ 2.37 µM) |

Continued by falling MIC, values first:

| MIC [µg/mL] | SMILES |
| --- | --- |
| 256 (≈ 352 µM) | CC[C@H]1OC(=O)[C@@](C)(F)C(=O)[C@H](C)[C@@H](O[C@@H]2O[C@H](C)C[C@H](N(C)C)[C@H]2O)[C@](C)(OC)C[C@@H](C)C(=O)[C@H](C)[C@H]2N(CCCCN=[N+]=[N-])C(=O)O[C@]12C |
| 32 (≈ 36.7 µM) | CC[C@H]1OC(=O)[C@@](C)(F)C(=O)[C@H](C)[C@@H](O[C@@H]2O[C@H](C)C[C@H](N(C)C)[C@H]2O)[C@](C)(OC)C[C@@H](C)C(=O)[C@H](C)[C@H]2N(CCCCn3cc(-c4ccc(N(C)C)cc4)nn3)C(=O)O[C@]12C |
| 16 (≈ 18 µM) | CC[C@H]1OC(=O)[C@@](C)(F)C(=O)[C@H](C)[C@@H](O[C@@H]2O[C@H](C)C[C@H](N(C)C)[C@H]2O)[C@](C)(OC)C[C@@H](C)C(=O)[C@H](C)[C@H]2N(CCCCn3cc(COc4ccc(OC)cc4)nn3)C(=O)O[C@]12C |
| 8 (≈ 9.43 µM) | CC[C@H]1OC(=O)[C@@](C)(F)C(=O)[C@H](C)[C@@H](O[C@@H]2O[C@H](C)C[C@H](N(C)C)[C@H]2O)[C@](C)(OC)C[C@@H](C)C(=O)[C@H](C)[C@H]2N(CCCCn3cc(-c4ccccc4F)nn3)C(=O)O[C@]12C |
